The subject of one data set is HepG2 cells. Description: Quantification of the secretion of ApoB. The class given is cell-based. The following applies: Homo sapiens, HepG2, 24 h, 24 hours of incubation, pIC50 = -log IC50. In a few lines: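 At 70% confluency, HepG2 cells received compound (0.4% DMSO final) for 24 h. Secreted apoB in cleared medium was immunoprecipitated with sheep anti-apoB then rabbit anti-sheep antibody (24 h each at 8° C.), and pellet radioactivity was counted by scintillation. IC50 values were expressed as pIC50.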

The target of another data set is MTP (Homo sapiens, UniProt P55157). The experiment in a line: MTP assay (triglyceride transfer from donor to acceptor vesicles). The class given is biochemical. Conditions: MTP activity, percent triglyceride transfer from donor to acceptor vesicles, 37° C. A digest of the protocol: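 Radiolabelled triglyceride transfer from donor vesicles (phosphatidylcholine, 7.5 mol % cardiolipin, 0.25 mol % glycerol tri[1-^14C]-oleate) to phosphatidylcholine acceptor vesicles with BSA, pH 7.5 Tris buffer; compounds in DMSO (0.13% final), 5 min preincubation at 37° C before MTP addition. Donor vesicles removed on DEAE-52; acceptor-supernatant ^14C counts give percent transfer.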
Chain of MTP (P55157 19-894, species assumed): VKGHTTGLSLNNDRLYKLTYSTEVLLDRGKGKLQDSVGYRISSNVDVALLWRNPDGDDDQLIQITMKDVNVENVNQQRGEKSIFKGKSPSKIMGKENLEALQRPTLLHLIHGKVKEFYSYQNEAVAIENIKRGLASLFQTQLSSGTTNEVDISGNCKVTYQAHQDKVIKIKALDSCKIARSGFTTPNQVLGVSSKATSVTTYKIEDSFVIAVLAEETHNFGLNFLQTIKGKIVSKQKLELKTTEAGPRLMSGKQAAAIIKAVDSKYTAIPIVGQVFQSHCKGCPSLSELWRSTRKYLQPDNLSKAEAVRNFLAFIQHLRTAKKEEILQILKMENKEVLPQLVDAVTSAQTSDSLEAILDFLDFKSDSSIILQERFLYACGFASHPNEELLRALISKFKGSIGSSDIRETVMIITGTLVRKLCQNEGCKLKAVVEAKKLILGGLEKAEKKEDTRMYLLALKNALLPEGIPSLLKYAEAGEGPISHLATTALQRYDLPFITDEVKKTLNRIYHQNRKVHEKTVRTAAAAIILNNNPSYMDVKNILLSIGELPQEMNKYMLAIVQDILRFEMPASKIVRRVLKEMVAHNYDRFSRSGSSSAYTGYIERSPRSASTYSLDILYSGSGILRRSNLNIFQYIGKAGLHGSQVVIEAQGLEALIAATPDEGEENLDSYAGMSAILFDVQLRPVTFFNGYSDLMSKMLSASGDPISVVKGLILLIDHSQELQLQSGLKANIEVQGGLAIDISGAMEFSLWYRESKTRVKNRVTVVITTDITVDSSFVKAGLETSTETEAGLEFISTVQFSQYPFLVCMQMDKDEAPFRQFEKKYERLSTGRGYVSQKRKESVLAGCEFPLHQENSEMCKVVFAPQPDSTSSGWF
Chain of MTP (P07237 18-508 partner, species assumed): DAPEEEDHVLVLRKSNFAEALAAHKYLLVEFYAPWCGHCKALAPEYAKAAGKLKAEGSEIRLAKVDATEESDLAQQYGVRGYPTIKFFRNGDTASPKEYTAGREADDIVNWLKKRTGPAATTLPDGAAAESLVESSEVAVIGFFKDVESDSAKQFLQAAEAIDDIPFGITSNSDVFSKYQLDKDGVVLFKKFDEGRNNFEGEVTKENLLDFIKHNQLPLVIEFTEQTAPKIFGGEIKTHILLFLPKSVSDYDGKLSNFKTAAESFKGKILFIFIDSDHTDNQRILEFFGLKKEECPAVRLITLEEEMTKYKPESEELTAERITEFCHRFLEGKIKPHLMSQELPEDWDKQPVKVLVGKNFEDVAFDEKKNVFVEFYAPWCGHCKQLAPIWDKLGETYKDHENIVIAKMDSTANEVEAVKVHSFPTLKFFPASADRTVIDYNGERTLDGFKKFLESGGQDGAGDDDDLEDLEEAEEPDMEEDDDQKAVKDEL

For `CCOC(=O)[C@]1(c2ccccc2)CC[C@@H](C(=O)N2CCC(NC(=O)c3ccccc3)CC2)c2ccccc21` (racemic) [Co. No. 25], the melting point is 112 to 115 °C. This compound also gave an IC50 in the data set on HepG2 cells of 15 nM. Besides, at MTP, the IC50 was 3.85 nM.

By IC50 is commonly meant the concentration at which inhibition is half-maximal. Low readings indicate inhibition by little substance, high ones a need for much substance. As a reminder, the melting point is the temperature of the solid-liquid transition.

The values above are taken from US8114880B2, “Piperidine or piperazine substituted tetrahydro-naphthalene-1-carboxylic acid MTP inhibiting compounds” (Janssen Pharmaceutica N.V., priority 2006, dated 2012).
